Measurements reported in patent US4444759A, “GnRH Antagonists II” (The Salk Institute for Biological Studies, priority 1982, dated 1984).
Square brackets hold non-standard residues; d marks the D form. Peptide text beside a SMILES is read from it. dPhe(4-NO2) = N[C@H](Cc1ccc([N+](=O)[O-])cc1)C(=O)O; dPhe(4-NH2) = Nc1ccc(C[C@@H](N)C(=O)O)cc1; dPhe(4-Br) = N[C@H](Cc1ccc(Br)cc1)C(=O)O; dPhe(4-Cl) = N[C@H](Cc1ccc(Cl)cc1)C(=O)O; dPhe(4-F) = N[C@H](Cc1ccc(F)cc1)C(=O)O; d2Nal = N[C@H](Cc1ccc2ccccc2c1)C(=O)O

What follows are compounds tested on LH released by 3 nanomolar GnRH in dissociated rat pituitary cells. Conditions: not given.
Type: cell-based
Description: The peptide is assayed in vitro and in vivo. The in vitro test is made using dissociated rat pituitary cells maintained in culture for 4 days prior to the assay. The levels of LH mediated in response to the application of peptides is assayed by specific radioimmunoassay for rat LH. Control dishes of cells only receive a measure which is 3 nanomolar in GnRH; experimental dishes receive a measure 3 nanomolar in GnRH plus a measure having either the present standard antagonist (for comparison purposes) i.e. [Ac-dehydro Pro^1, 4-F-D-Phe^2, D-Trp^3,6 ]-GnRH or the test peptide in concentrations ranging from 0.01 to 10 nanomolar. The amount of LH secreted in the samples treated only with GnRH is compared with that secreted by the samples treated with the peptide plus GnRH.
The ability of the test peptide to reduce the amount of LH released by 3 nanomolar GnRH is compared to that of the present standard peptide. The results are calculated using 3-5 doses of each of the peptides by the statistical program BIOPROG (provided by D. Rodbard NICHD) and are expressed as a potency relative to the present standard. The standard peptide usually blocks 50% of the LH released by GnRH at less than a ratio of 0.1 [antagonist]/1[GnRH].

In order of rising “in vitro Potency relative to [Ac-dehydro Pro1, 4-F-D-Phe2, D-Trp3,6]-GnRH” value:
1. CCNC(=O)[C@@H]1CCCN1C(=O)[C@H](CCCNC(=N)N)NC(=O)[C@H](CC(C)C)NC(=O)[C@@H](CCCNC(=N)N)NC(=O)[C@H](Cc1ccc(O)cc1)NC(=O)[C@H](CO)NC(=O)[C@@H](Cc1c[nH]c2ccccc12)NC(=O)[C@@H](Cc1ccc([N+](=O)[O-])cc1)NC(=O)[C@@H](Cc1ccc2ccccc2c1)NC(C)=O [Peptide 5] (Ac-[d2Nal][dPhe(4-NO2)][dW]SY[dR]LRP-NHEt)  0.20
2. CCNC(=O)[C@@H]1CCCN1C(=O)[C@H](CCCNC(=N)N)NC(=O)[C@H](CC(C)C)NC(=O)[C@@H](CCCNC(=N)N)NC(=O)[C@H](Cc1ccc(O)cc1)NC(=O)[C@H](CO)NC(=O)[C@@H](Cc1c[nH]c2ccccc12)NC(=O)[C@@H](Cc1ccc(Cl)cc1)NC(=O)[C@@H](Cc1ccc2ccccc2c1)NC(C)=O [Peptide 4] (Ac-[d2Nal][dPhe(4-Cl)][dW]SY[dR]LRP-NHEt)  0.38
3. CC(=O)N[C@H](Cc1ccc2ccccc2c1)C(=O)N[C@H](Cc1ccc(F)cc1)C(=O)N[C@H](Cc1c[nH]c2ccccc12)C(=O)N[C@@H](CO)C(=O)N[C@@H](Cc1ccc(O)cc1)C(=O)N[C@H](CCCNC(=N)N)C(=O)N[C@@H](CC(C)C)C(=O)N[C@@H](CCCNC(=N)N)C(=O)N1CCC[C@H]1C(=O)NCC(N)=O [Peptide 1, [Ac-β-D-2NAL^1,4-F-D-Phe^2,D-Trp^3, D-Arg^6]-GnRH] (Ac-[d2Nal][dPhe(4-F)][dW]SY[dR]LRPG-NH2)  0.44
4. CCNC(=O)[C@@H]1CCCN1C(=O)[C@H](CCCNC(=N)N)NC(=O)[C@H](CC(C)C)NC(=O)[C@@H](CCCNC(=N)N)NC(=O)[C@H](Cc1ccc(O)cc1)NC(=O)[C@H](CO)NC(=O)[C@@H](Cc1c[nH]c2ccccc12)NC(=O)[C@@H](Cc1ccc(Br)cc1)NC(=O)[C@@H](Cc1ccc2ccccc2c1)NC(C)=O [Peptide 6] (Ac-[d2Nal][dPhe(4-Br)][dW]SY[dR]LRP-NHEt)  0.46
5. CC(=O)N[C@H](Cc1ccc2ccccc2c1)C(=O)N[C@H](Cc1ccc(Cl)cc1)C(=O)N[C@H](Cc1c[nH]c2ccccc12)C(=O)N[C@@H](CO)C(=O)N[C@@H](Cc1ccc(O)cc1)C(=O)N[C@H](CCCNC(=N)N)C(=O)N[C@@H](CC(C)C)C(=O)N[C@@H](CCCNC(=N)N)C(=O)N1CCC[C@H]1C(=O)NCC(N)=O [Peptide 3] (Ac-[d2Nal][dPhe(4-Cl)][dW]SY[dR]LRPG-NH2)  0.56
6. CC(=O)N[C@H](Cc1ccc2ccccc2c1)C(=O)N[C@H](Cc1ccc(F)cc1)C(=O)N[C@H](Cc1c[nH]c2ccccc12)C(=O)N[C@@H](CO)C(=O)N[C@@H](Cc1ccc(O)cc1)C(=O)N[C@H](CCCNC(=N)N)C(=O)N[C@@H](CC(C)C)C(=O)N[C@@H](CCCNC(=N)N)C(=O)N1CCC[C@H]1C(=O)N[C@H](C)C(N)=O [Peptide 7] (Ac-[d2Nal][dPhe(4-F)][dW]SY[dR]LRP[dA]-NH2)  0.63
7. CC(=O)N[C@H](Cc1ccc2ccccc2c1)C(=O)N[C@H](Cc1ccc(F)cc1)C(=O)N[C@H](Cc1c[nH]c2ccccc12)C(=O)N[C@@H](CO)C(=O)N[C@@H](Cc1ccc(O)cc1)C(=O)N[C@H](Cc1ccc(N)cc1)C(=O)N[C@@H](CC(C)C)C(=O)N[C@@H](CCCNC(=N)N)C(=O)N1CCC[C@H]1C(=O)NCC(N)=O [Peptide 2] (Ac-[d2Nal][dPhe(4-F)][dW]SY[dPhe(4-NH2)]LRPG-NH2)  1.4

Same assay, conditions: 3 nanomolar GnRH; usual value

“[Ac-dehydro Pro^1, 4-F-D-Phe^2, D-Trp^3,6 ]-GnRH [standard peptide, reference compound]” was tested, and the “ratio [antagonist]/1[GnRH] that blocks 50% of the LH released by GnRH” value was < 0.1 [antagonist]/1[GnRH].
